From patent publication US9120849B2 (priority 2000, dated 2015)
Read-outs that look alike come from different tables or passages of the source.

What was measured:
[1] = tested on: duck hepatitis B virus (DHBV); settings: 60 minutes, 20° C., Reed and Muench
Procedure: This model uses primary duck hepatocytes (PDHs) as host (Pugh et al., 1999). We isolated and maintained PDHs from less than one week-old seronegative White Pekin ducklings (Anas dornesticus) with modifications from previous procedures (Berry and Friend, 1969, Seglen. 1976, Pugh and Summers, 1989, Pugh et al., 2000, Tuttleman et al., 1986). Briefly, ducks were euthanized by exposing them to C02 and livers were perfused twice via the atrium of the heart with approximately 200 mL each of two solutions. The first solution consisted of SWIM's S-77 medium (Sigma) supplemented with 0.5 mmol/L EGTA, 2 mmol/L Hepes (pH 7.45) and 50 ug/mL penicillin and streptomycin (Biofluids, Rockville, Md.). The second solution contained SWIM's S-77 medium supplemented with 2.5 mmol/L CaCl2, 0.5 mg of collagenase/mL (type I, Sigma, St. Louis) and 50 ug/mL penicillin and streptomycin. These perfusates were administered at approximately 15 mL/minute using a peristaltic pump and the temperature of the perftisate was adjusted to maintain the liver at 37° C. The liver was removed, minced with scissors and repeatedly mixed with a 25 mL pipette for hepatocyte dispersion into complete L-15 medium (Biofluids, Rockville, Md.) supplemented with 0.05-percent (w/v) sodium bicarbonate (Biofluids), 1 mmol/L glutamine (Biofluids), 20 mmol/L HEPES (Biofluids), 50 ug/mL penicillin and streptomycin (Biofluids), I (g/mL insulin (Sigma, St. Louis), and 10 (moi/L hydrocortisone-hemisuccinate (Sigma). Cells were filtered through sterile gauze, centrifuged at 50×g for 4 minutes, and the resulting cell pellet was washed three times with L-15 medium and resuspended in L-15 medium. 12-well plates were seeded with approximately two-mL of the cell suspension (ca. 10^5 cells). Media on the plated cells were aspirated every two days and replaced with fresh L-15 media.
Serum of four week-old congenitally infected duckling served as the source of virus used in these experiments. Treated and control DHBV spiked red cell samples were serially diluted 10-fold in L-15 medium and one-mL volumes were subsequently inoculated into PDH monolayers in quadruplicate. The infected cultures were incubated at 37° C.+20° C. with 5+1% C02 overnight for virus attachment and entry. The inoculum was then removed, cell monolayers washed once with complete L-15 medium to remove excess red blood cells, and then each well was overlaid with approximately 2-mL of fresh L-15 medium. Infected monolayers were incubated an additional 10-14 days at 37(+20° C. with 5+1% C02, with media changes every 2 days.
We detected the presence of DHB V-infected duck hepatocytes by an IFA. Briefly, the medium from the PDH monolayer was removed by aspiration, and the monolayers washed with agitation for 5-10 minutes with 1-2 mL of phosphate buffered saline (PBS). […]

HIV = settings: CEM cells
Procedure: This example describes one method of inactivation of the purified virus according to the invention by crosslinking of surface proteins. […] Titrations of the fixative were preformed above and below the concentration recommended by the CDC for inactivation of virus in biological fluids (May 8, 1992/41 (RR-8); 001 CDC Guidelines for the Performance of CD4+ T-Cell Determinations in Persons with Human Immunodeficiency Virus Infection). Initially, purified virus was slowly thawed at 2-8° C. for 6-8 hours to minimize lysis of the virus. Next, while on ice, virus was diluted with cold PBS to a final concentration of approximately 1×10^10 copies/mL (cp/mL). […] The reaction mixtures were then incubated at 2-8° C. for 60 minutes while gently rocking. […] After the addition of glycine the reactions were gently rocked for 2 hr. at 2-8° C. To remove glycine and any excess unquenched fixative each reaction mixture was then dialyzed (10-14K m.w. cutoff) against 1 L PBS (pH 7.4, 2-8° C.) for 4 changes. Dialyzed virus was then transferred into a 15 mL tube and centrifuged for 10 min. at 3,000×g to pellet any precipitated virus. A sample of each supernatant was then tested in cell culture for the presence of infectious virus.
The modified virus produced as described in Example 2 was tested to ensure the process inactivated the virus. As an illustration, the CEM cell line, obtained from the American Type Culture Collection was used as a host cell for viral infectivity studies. Advantages of using this line are that establishment of in vitro HIV infection requires relatively few virions and that the infection is chronic rather than lytic, facilitating analysis. For these studies, infection is detected and followed using the ZeptoMetrix HIV p24 Antigen EIA (ZeptoMetrix, Buffalo N.Y.).
CEM cells are cultured in RPMI-1640 containing 10% FBS in 24 well plates Cells are plated at 10^5 cells per well in a 1 ml volume and 100 ul of various dilutions of virus, either treated or untreated, are added to individual wells. Cultures are fed twice weekly by 50% media replacement and culture supernatants are assayed for HIV p24. All cultures initially contain HIV p24. However, in cultures where virus is noninfectious HIV p24 levels decrease over time eventually reaching background levels.
Different dilutions (1:8,000, 1:80,000, and 1:800,000) of treated virus were then placed into cultures of CEM cells and p24 assays were performed on culture supernatants on days 3, 7, 10, and 14 post-inoculation. Data are expressed as pg/ml of HIV p24 protein in the culture supernatants. The standard curve for the p24 assay is linear from 7.8 pg/ml to 125 pg/ml. HIV p24 concentrations below 7.8 pg/ml are expressed as “<7.8 pg/ml” to indicate sensitivity of the assay, and values above 125 pg/ml are expressed as “>125 pg/ml” since the assay is nonlinear above 125 pg/ml.

paraformaldehyde
FFFUD50/mL (log10) ([1]; paraformaldehyde column 1): 0 FFFUD50/mL (log10)
FFFUD50/mL (log10) ([1]; paraformaldehyde column 2): 0 FFFUD50/mL (log10)
FFFUD50/mL (log10) ([1]; paraformaldehyde column 3): 0 FFFUD50/mL (log10)
FFFUD50/mL (log10) ([1]; paraformaldehyde column 4): 0 FFFUD50/mL (log10)
HIV p24 protein in culture supernatants (HIV; 0.625% paraformaldehyde 60 min, treated HIV diluted 1:8,000, 3 days post-inoculation): 71.8 pg/mL
HIV p24 protein in culture supernatants (HIV; 0.625% paraformaldehyde 60 min, treated HIV diluted 1:8,000, 7 days post-inoculation): 109 pg/mL
HIV p24 protein in culture supernatants (HIV; 0.625% paraformaldehyde 60 min, treated HIV diluted 1:8,000, 10 days post-inoculation): 22.9 pg/mL
HIV p24 protein in culture supernatants (HIV; 0.625% paraformaldehyde 60 min, treated HIV diluted 1:8,000, 14 days post-inoculation): <7.8 pg/mL
HIV p24 protein in culture supernatants (HIV; 0.625% paraformaldehyde 60 min, treated HIV diluted 1:80,000, 3 days post-inoculation): <7.8 pg/mL
HIV p24 protein in culture supernatants (HIV; 0.625% paraformaldehyde 60 min, treated HIV diluted 1:80,000, 7 days post-inoculation): <7.8 pg/mL
HIV p24 protein in culture supernatants (HIV; 0.625% paraformaldehyde 60 min, treated HIV diluted 1:80,000, 10 days post-inoculation): <7.8 pg/mL
HIV p24 protein in culture supernatants (HIV; 0.625% paraformaldehyde 60 min, treated HIV diluted 1:80,000, 14 days post-inoculation): <7.8 pg/mL
HIV p24 protein in culture supernatants (HIV; 0.625% paraformaldehyde 60 min, treated HIV diluted 1:800,000, 3 days post-inoculation): <7.8 pg/mL
HIV p24 protein in culture supernatants (HIV; 0.625% paraformaldehyde 60 min, treated HIV diluted 1:800,000, 7 days post-inoculation): <7.8 pg/mL
HIV p24 protein in culture supernatants (HIV; 0.625% paraformaldehyde 60 min, treated HIV diluted 1:800,000, 10 days post-inoculation): <7.8 pg/mL
HIV p24 protein in culture supernatants (HIV; 0.625% paraformaldehyde 60 min, treated HIV diluted 1:800,000, 14 days post-inoculation): <7.8 pg/mL
HIV p24 protein in culture supernatants (HIV; 1.25% paraformaldehyde 60 min, treated HIV diluted 1:8,000, 3 days post-inoculation): 41.9 pg/mL
HIV p24 protein in culture supernatants (HIV; 1.25% paraformaldehyde 60 min, treated HIV diluted 1:8,000, 7 days post-inoculation): 34.2 pg/mL
HIV p24 protein in culture supernatants (HIV; 1.25% paraformaldehyde 60 min, treated HIV diluted 1:8,000, 10 days post-inoculation): <7.8 pg/mL
HIV p24 protein in culture supernatants (HIV; 1.25% paraformaldehyde 60 min, treated HIV diluted 1:8,000, 14 days post-inoculation): <7.8 pg/mL
HIV p24 protein in culture supernatants (HIV; 1.25% paraformaldehyde 60 min, treated HIV diluted 1:80,000, 3 days post-inoculation): <7.8 pg/mL
HIV p24 protein in culture supernatants (HIV; 1.25% paraformaldehyde 60 min, treated HIV diluted 1:80,000, 7 days post-inoculation): <7.8 pg/mL
HIV p24 protein in culture supernatants (HIV; 1.25% paraformaldehyde 60 min, treated HIV diluted 1:80,000, 10 days post-inoculation): <7.8 pg/mL
HIV p24 protein in culture supernatants (HIV; 1.25% paraformaldehyde 60 min, treated HIV diluted 1:80,000, 14 days post-inoculation): <7.8 pg/mL
HIV p24 protein in culture supernatants (HIV; 1.25% paraformaldehyde 60 min, treated HIV diluted 1:800,000, 3 days post-inoculation): <7.8 pg/mL
HIV p24 protein in culture supernatants (HIV; 1.25% paraformaldehyde 60 min, treated HIV diluted 1:800,000, 7 days post-inoculation): <7.8 pg/mL
HIV p24 protein in culture supernatants (HIV; 1.25% paraformaldehyde 60 min, treated HIV diluted 1:800,000, 10 days post-inoculation): <7.8 pg/mL
HIV p24 protein in culture supernatants (HIV; 1.25% paraformaldehyde 60 min, treated HIV diluted 1:800,000, 14 days post-inoculation): <7.8 pg/mL
HIV p24 protein in culture supernatants (HIV; 2.5% paraformaldehyde 60 min, treated HIV diluted 1:8,000, 3 days post-inoculation): <7.8 pg/mL
HIV p24 protein in culture supernatants (HIV; 2.5% paraformaldehyde 60 min, treated HIV diluted 1:8,000, 7 days post-inoculation): <7.8 pg/mL
HIV p24 protein in culture supernatants (HIV; 2.5% paraformaldehyde 60 min, treated HIV diluted 1:8,000, 10 days post-inoculation): <7.8 pg/mL
HIV p24 protein in culture supernatants (HIV; 2.5% paraformaldehyde 60 min, treated HIV diluted 1:8,000, 14 days post-inoculation): <7.8 pg/mL
HIV p24 protein in culture supernatants (HIV; 2.5% paraformaldehyde 60 min, treated HIV diluted 1:80,000, 3 days post-inoculation): <7.8 pg/mL
HIV p24 protein in culture supernatants (HIV; 2.5% paraformaldehyde 60 min, treated HIV diluted 1:80,000, 7 days post-inoculation): <7.8 pg/mL
HIV p24 protein in culture supernatants (HIV; 2.5% paraformaldehyde 60 min, treated HIV diluted 1:80,000, 10 days post-inoculation): <7.8 pg/mL
HIV p24 protein in culture supernatants (HIV; 2.5% paraformaldehyde 60 min, treated HIV diluted 1:80,000, 14 days post-inoculation): <7.8 pg/mL
HIV p24 protein in culture supernatants (HIV; 2.5% paraformaldehyde 60 min, treated HIV diluted 1:800,000, 3 days post-inoculation): <7.8 pg/mL
HIV p24 protein in culture supernatants (HIV; 2.5% paraformaldehyde 60 min, treated HIV diluted 1:800,000, 7 days post-inoculation): <7.8 pg/mL
HIV p24 protein in culture supernatants (HIV; 2.5% paraformaldehyde 60 min, treated HIV diluted 1:800,000, 10 days post-inoculation): <7.8 pg/mL
HIV p24 protein in culture supernatants (HIV; 2.5% paraformaldehyde 60 min, treated HIV diluted 1:800,000, 14 days post-inoculation): <7.8 pg/mL
HIV p24 protein in culture supernatants (HIV; 5.0% paraformaldehyde 60 min, treated HIV diluted 1:8,000, 3 days post-inoculation): <7.8 pg/mL
HIV p24 protein in culture supernatants (HIV; 5.0% paraformaldehyde 60 min, treated HIV diluted 1:8,000, 7 days post-inoculation): <7.8 pg/mL
HIV p24 protein in culture supernatants (HIV; 5.0% paraformaldehyde 60 min, treated HIV diluted 1:8,000, 10 days post-inoculation): <7.8 pg/mL
HIV p24 protein in culture supernatants (HIV; 5.0% paraformaldehyde 60 min, treated HIV diluted 1:8,000, 14 days post-inoculation): <7.8 pg/mL
HIV p24 protein in culture supernatants (HIV; 5.0% paraformaldehyde 60 min, treated HIV diluted 1:80,000, 3 days post-inoculation): <7.8 pg/mL
HIV p24 protein in culture supernatants (HIV; 5.0% paraformaldehyde 60 min, treated HIV diluted 1:80,000, 7 days post-inoculation): <7.8 pg/mL
HIV p24 protein in culture supernatants (HIV; 5.0% paraformaldehyde 60 min, treated HIV diluted 1:80,000, 10 days post-inoculation): <7.8 pg/mL
HIV p24 protein in culture supernatants (HIV; 5.0% paraformaldehyde 60 min, treated HIV diluted 1:80,000, 14 days post-inoculation): <7.8 pg/mL
HIV p24 protein in culture supernatants (HIV; 5.0% paraformaldehyde 60 min, treated HIV diluted 1:800,000, 3 days post-inoculation): <7.8 pg/mL
HIV p24 protein in culture supernatants (HIV; 5.0% paraformaldehyde 60 min, treated HIV diluted 1:800,000, 7 days post-inoculation): <7.8 pg/mL
